Reference: ChEMBL document CHEMBL3784998, “Synthesis and biological evaluation ofd-gluconhydroximo-1,5-lactam and its oxime-substituted derivatives as pharmacological chaperones for the treatment of Gaucher disease” (Medchemcomm, 2016)
Changes are numbered by the printed parent chain. Calls of active or inactive are those of the source. The calls are words filed in the database; no cut-off is given here.

Legend:
[1] = tested on: T1, Lysosomal acid glucosylceramidase (Homo sapiens), P04062 [N409S]; experiment: Pharmacological chaperone activity at beta-glucocerebrosidase N370S mutant in Gaucher disease patient-derived lymphoblasts with GCase N370S mutant assessed as increase in enzyme activity at 3.125 to 100 uM after 3 days by fluorimetric analysis relative to control
T1 sequence (whole entry): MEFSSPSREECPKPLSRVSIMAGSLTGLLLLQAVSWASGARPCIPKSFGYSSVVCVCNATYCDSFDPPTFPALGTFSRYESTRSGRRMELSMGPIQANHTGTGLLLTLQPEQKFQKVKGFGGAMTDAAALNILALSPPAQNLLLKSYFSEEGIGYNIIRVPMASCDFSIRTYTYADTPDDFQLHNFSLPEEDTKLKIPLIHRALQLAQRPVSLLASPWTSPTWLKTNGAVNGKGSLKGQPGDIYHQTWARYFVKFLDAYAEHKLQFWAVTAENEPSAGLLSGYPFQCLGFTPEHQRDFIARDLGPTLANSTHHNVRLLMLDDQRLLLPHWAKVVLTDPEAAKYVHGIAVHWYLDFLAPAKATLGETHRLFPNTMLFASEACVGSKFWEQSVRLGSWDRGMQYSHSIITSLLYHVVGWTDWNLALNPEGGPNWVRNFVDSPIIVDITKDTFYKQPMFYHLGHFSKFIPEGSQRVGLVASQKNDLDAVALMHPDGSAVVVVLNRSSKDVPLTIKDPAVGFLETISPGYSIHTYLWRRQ

[2] = molecular target: T2, Lysosomal acid glucosylceramidase (Homo sapiens, UniProt P04062); experiment: Inhibition of human recombinant imiglucerase using 4-MU-beta-D-Glu as substrate at pH 7.0 after 30 mins by fluorometric analysis
T2 sequence (P04062 whole entry): T1 sequence (whole entry) with S409N

[3] = molecular target: T2, Lysosomal acid glucosylceramidase; experiment: Inhibition of human recombinant imiglucerase using 4-MU-beta-D-Glu as substrate at pH 5.2 after 30 mins by fluorometric analysis
[4] = Inhibition of almond beta glucosidase; parameters: species or system Prunus dulcis
Alpha-galactosidase = Alpha-galactosidase (Coffea arabica, UniProt Q42656); experiment: Inhibition of green coffee bean alpha-galactosidase
Chain of Alpha-galactosidase (Q42656 whole entry): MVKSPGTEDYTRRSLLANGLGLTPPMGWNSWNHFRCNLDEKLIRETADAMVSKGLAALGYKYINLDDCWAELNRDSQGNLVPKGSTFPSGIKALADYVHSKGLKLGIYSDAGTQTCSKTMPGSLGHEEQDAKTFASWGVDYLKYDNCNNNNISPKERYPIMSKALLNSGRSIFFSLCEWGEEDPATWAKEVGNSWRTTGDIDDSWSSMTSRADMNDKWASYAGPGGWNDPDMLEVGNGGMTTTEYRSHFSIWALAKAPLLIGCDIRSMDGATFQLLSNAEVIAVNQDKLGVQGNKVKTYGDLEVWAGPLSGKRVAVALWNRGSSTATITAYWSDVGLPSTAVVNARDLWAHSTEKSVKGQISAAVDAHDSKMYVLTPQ

[5] = Cytotoxicity against wild type human CCC-ESF1 cells at 100 uM after 24 hrs by MTT assay; type: cell-based; settings: ccc-esf1, 24 h
Beta-galactosidase = Beta-galactosidase (Escherichia coli K-12, UniProt P00722); experiment: Inhibition of Escherichia coli beta-galactosidase
Chain of Beta-galactosidase (P00722 whole entry): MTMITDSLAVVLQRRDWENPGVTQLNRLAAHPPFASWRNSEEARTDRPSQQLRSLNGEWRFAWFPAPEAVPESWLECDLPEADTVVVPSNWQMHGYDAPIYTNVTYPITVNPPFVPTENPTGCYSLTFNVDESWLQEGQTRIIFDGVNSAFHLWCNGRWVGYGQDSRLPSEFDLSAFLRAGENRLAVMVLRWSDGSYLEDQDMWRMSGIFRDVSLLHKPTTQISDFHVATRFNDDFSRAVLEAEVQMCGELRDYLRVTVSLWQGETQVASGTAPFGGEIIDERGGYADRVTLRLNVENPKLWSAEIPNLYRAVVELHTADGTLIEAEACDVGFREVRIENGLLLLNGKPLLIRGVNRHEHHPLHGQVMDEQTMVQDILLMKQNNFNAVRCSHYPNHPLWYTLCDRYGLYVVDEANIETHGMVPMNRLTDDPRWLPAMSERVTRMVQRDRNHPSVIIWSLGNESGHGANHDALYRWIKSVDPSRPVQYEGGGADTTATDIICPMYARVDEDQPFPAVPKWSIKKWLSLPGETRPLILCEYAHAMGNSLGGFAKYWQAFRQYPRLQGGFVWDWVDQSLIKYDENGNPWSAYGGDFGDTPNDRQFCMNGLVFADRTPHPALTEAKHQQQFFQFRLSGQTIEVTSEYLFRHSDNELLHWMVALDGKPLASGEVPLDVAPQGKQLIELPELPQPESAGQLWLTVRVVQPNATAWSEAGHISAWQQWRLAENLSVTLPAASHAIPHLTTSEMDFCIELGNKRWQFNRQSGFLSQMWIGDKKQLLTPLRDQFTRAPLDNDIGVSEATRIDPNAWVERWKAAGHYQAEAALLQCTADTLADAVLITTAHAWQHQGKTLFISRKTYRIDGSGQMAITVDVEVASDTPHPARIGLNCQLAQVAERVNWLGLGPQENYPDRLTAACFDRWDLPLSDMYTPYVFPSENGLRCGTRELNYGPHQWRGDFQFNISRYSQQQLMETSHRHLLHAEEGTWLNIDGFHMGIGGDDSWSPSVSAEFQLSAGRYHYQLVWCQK

[6] = molecular target: T2, Lysosomal acid glucosylceramidase; experiment: Competitive inhibition of human recombinant imiglucerase using 4-MU-beta-D-Glu as substrate at pH 5.2 after 30 mins by fluorometry based Lineweaver-Burk plot analysis
[7] = tested on: T1, Lysosomal acid glucosylceramidase (Homo sapiens), P04062 [N409S]; experiment: Pharmacological chaperone activity at beta-glucocerebrosidase N370S mutant in Gaucher disease patient-derived lymphoblasts with GCase N370S mutant assessed as increase in enzyme activity at 10 uM after 3 days by fluorimetric analysis relative to control

Row | SMILES | fold change (FC) [1] | IC50 [2] | IC50 [3] | IC50 [4] | IC50 (Alpha-galactosidase) | Activity [5] | IC50 (Beta-galactosidase) | Ki [6] | Activity [7]
1 | O=C(Nc1cccc2ccccc12)O/N=C1\N[C@H](CO)[C@@H](O)[C@H](O)[C@H]1O | 1.47 | 1.43 µM | 7.21 µM | 10.7 µM | > 100 µM | Non-toxic | > 100 µM | 7.94 µM | –
2 | CC(C)(C)NC(=O)O/N=C1\N[C@H](CO)[C@@H](O)[C@H](O)[C@H]1O | 1.3 | 21.5 µM | 29.1 µM | 46 µM | > 100 µM | Non-toxic | > 100 µM | 30.1 µM | –
3 | O=C(Nc1c(Cl)cccc1C(F)(F)F)O/N=C1\N[C@H](CO)[C@@H](O)[C@H](O)[C@H]1O | 1.32 | 23.5 µM | 18.1 µM | 5.82 µM | > 100 µM | Non-toxic | > 100 µM | 12.3 µM | –
4 | O=C(Nc1ccccc1)O/N=C1\N[C@H](CO)[C@@H](O)[C@H](O)[C@H]1O | 1.49 | 19.3 µM | 12.5 µM | 31.1 µM | > 100 µM | Non-toxic | > 100 µM | 11.5 µM | –
5 | OC[C@H]1CNC[C@@H](O)[C@@H]1O [AFEGOSTAT] | 1.38 | – | – | > 100 µM | > 100 µM | Non-toxic | > 100 µM | – | –
6 | O=C(NC12CC3CC(CC(C3)C1)C2)O/N=C1\N[C@H](CO)[C@@H](O)[C@H](O)[C@H]1O | 1.35 | 8.37 µM | 1.85 µM | 14.4 µM | > 100 µM | Non-toxic | > 100 µM | 1.52 µM | –
7 | O=C(Nc1ccc(Oc2ccccc2)cc1)O/N=C1\N[C@H](CO)[C@@H](O)[C@H](O)[C@H]1O | 1.17 | 3.32 µM | 0.32 µM | 14.4 µM | > 100 µM | Non-toxic | > 100 µM | 0.05 µM | –
8 | CCCCCCCCCCCCNC(=O)O/N=C1\N[C@H](CO)[C@@H](O)[C@H](O)[C@H]1O | 1.93 | 5.74 µM | 0.7 µM | > 100 µM | > 100 µM | Non-toxic | > 100 µM | 0.14 µM | –
9 | OC[C@H]1N/C(=N/O)[C@H](O)[C@@H](O)[C@@H]1O | 1.28 | 65.8 µM | 5.84 µM | 80.3 µM | > 100 µM | Non-toxic | > 100 µM | 4.28 µM | inactive
10 | CSc1ccc(NC(=O)O/N=C2\N[C@H](CO)[C@@H](O)[C@H](O)[C@H]2O)cc1 | 1.19 | 17.2 µM | 9.15 µM | 8.38 µM | > 100 µM | Non-toxic | > 100 µM | 8.12 µM | –
11 | O=C(Nc1cccs1)O/N=C1\N[C@H](CO)[C@@H](O)[C@H](O)[C@H]1O | 1.36 | 13.2 µM | 0.84 µM | 2.68 µM | > 100 µM | Non-toxic | > 100 µM | 0.64 µM | –
12 | O=C(Nc1c(F)cccc1F)O/N=C1\N[C@H](CO)[C@@H](O)[C@H](O)[C@H]1O | 1.35 | 21.9 µM | 16.8 µM | 7.59 µM | > 100 µM | Non-toxic | > 100 µM | 17.4 µM | –
13 | CCCCCCCCCN1C[C@H](O)[C@@H](O)[C@H](O)[C@H]1CO | – | – | – | > 100 µM | > 100 µM | Non-toxic | > 100 µM | – | –
14 | O=C(Nc1ccc2nsnc2c1)O/N=C1\N[C@H](CO)[C@@H](O)[C@H](O)[C@H]1O | 1.23 | 12.5 µM | 5.75 µM | 6.21 µM | > 100 µM | Non-toxic | > 100 µM | 6.38 µM | –
